Experiments:
[1] = test system: blast crisis CML (AML) cells; test: Colony forming assay in methylcellulose media after Msi2 shRNA delivery; format: cell-based, mouse
Protocol: Lineage negative, NUP98-HOXA9-YFP positive cells from AML were sorted and infected retrovirally with either Vector-IRES-GFP or Numb-IRES-GFP. After 48 hours of infection, cells were sorted and serially plated on complete methylcellulose medium (Methocult GF M3434 from StemCell Technologies).
(§1) To determine if inhibiting Msi2 could impact the growth of established CML, and to rule out the possibility that the reduced incidence of leukemia in Gt mutants was due to developmental defects and examine if Msi2 knockdown affects AML maintenance, Msi expression was targeted using an alternate shRNA approach. A lineage-negative population was sorted from full blown AML cells, which contains AML stem cells. Lin− cells from NUP98-HOXA9/BCR-ABL-induced blast crisis leukemias were infected with either an shRNA retrovirus targeting Msi2 (shMsi; SEQ ID NO: 9) or firefly luciferase (shLuc; SEQ ID NO: 10) as a negative control and resorted, and Msi2 expression was analyzed by realtime RT-PCR. […] Error bars represent s.e.m. of triplicate PCRs (**p<0.01).
As a control, shRNA against LacZ was used. Error bars represent s.e.m. of triplicate PCRs (**p<0.01). […] Error bars represent s.e.m. of triplicate assay wells (**p<0.01). […] Error bars represent s.e.m. of triplicate PCRs (**p<0.01).

blast crisis CML / AML = test: Transplantation of shRNA-infected blast crisis CML/AML cells into irradiated mice; format: in vivo
From the text: Mouse models of CML were generated by transducing bone marrow stem and progenitor cells with retroviruses carrying BCR-ABL (chronic phase), or BCR-ABL and NUP98-HOXA9 (blast crisis phase) and transplanted into irradiated recipient mice. The development of CML was confirmed by flow cytometry and histopathology. Transgenic Notch reporter (TNR), Rag1−/−, and C57BL6/J were used as transplant donors, and C57Bl6/J CD45.1 and CD1 mice were used as transplant recipients. All mice were 8-12 weeks of age. Mice were bred and maintained on acidified water after transplantation in the animal care facility at Duke University Medical Center. All live animal experiments were performed according to protocols approved by the Duke University Institutional Animal Care and Use Committee. For Msi2 knockdown experiments, lineage negative blast crisis CML cells were infected with Msi2 or control Luciferase shRNA retroviral constructs and leukemia incidence monitored.
Bone marrow c-Kit+ or KLS cells from C57BL6/J or TNR mice were enriched and cultured overnight in X-vivo15 with 10% FBS, 50 μM 2-mercaptoethanol, 100 ng/mL SCF, and 20 ng/mL TPO in a 96 well U-bottom plate or 6 well plate. Subsequently, cells were infected with MSCV-BCR-ABL-IRES-YFP (or CFP) to generate CML, or MSCV-BCR-ABL-IRES-YFP (or CFP) and MSCV-NUP98-HOXA9-IRES-YFP (or NGFR) to generate AML. Cells were harvested 48 hours after infection and transplanted retro-orbitally into groups of 4-7 recipient mice. Recipients were lethally irradiated (10 Gy) for CML, and sublethally irradiated (7 Gy) for AML. For Numb overexpression, cells were infected with either MSCV-Numb-IRES-GFP (or hCD2) or MSCV-IRES-GFP (or hCD2) along with MSCV-BCR-ABL-IRES-YFP (or CFP) and MSCV-NUP98-HOXA9-IRES-NGFR (or YFP) and 20,000 to 100,000 sorted infected cells were transplanted per mouse. For secondary transplantation, cells from primary transplanted mice were sorted for either MSCV-Numb-IRES-GFP and MSCV-NUP98-HOXA9-YFP or MSCV-IRES-GFP and MSCV-NUP98-HOXA9-YFP, and 7,000 to 8,000 cells were transplanted per mouse. For ICN experiments, cells were infected with MSCV-ICN-IRES-CFP and MSCV-BCR-ABL-GFP, MSCV-ICN-IRES-CFP and MSCV-IRES-GFP, or MSCV-BCR-ABL-IRES-GFP and MSCV-IRES-CFP, and 10,000 to 20,000 KLS-derived or 200,000 to 500,000 c-kit+-derived sorted cells were transplanted per mouse. For the TNR mouse model, cells were infected with MSCV-BCR-ABL-IRES-YFP (or CFP) to generate CML or MSCV-BCR-ABL-IRES-YFP (or CFP) and MSCV-NUP98-HOXA9-IRES-NGFR to generate AML. 10,000 to 80,000 unsorted cells were transplanted per mouse. After transplantation, recipient mice were subsequently maintained on antibiotic water (sulfamethoxazole and trimethoprim) and evaluated daily for signs of morbidity, weight loss, failure to thrive, and splenomegaly. Premorbid animals were sacrificed by CO2 asphyxiation followed by cervical dislocation. Subsequently relevant tissues were harvested and analyzed by flow cytometry and histopathology.
Data shown is representative of two to three independent experiments.
The impact of Msi2 loss in AML propagation in vivo was also tested. Lin-negative cells from full blown AML were transduced either with an Msi2 shRNA retrovirus or luciferase shRNA virus, and the cells were transplanted into sublethally-irradiated mice. 11 of 13 mice transplanted with control knockdown AML became sick by 1 month post transplant.
Serial transplants were also done to test the presence of leukemia-initiating ability of control and Msi2 knockdown AML cells from the mice who suffered from leukemia.

Msi2 transcript = test: Msi2 knockdown measured by realtime RT-PCR; format: cell-based, mouse; conditions: Lin− cells from NUP98-HOXA9/BCR-ABL blast crisis leukemias; compared with shLuc control
Protocol: RNA was isolated using RNAqueous-Micro (Ambion), levels were equalized, and RNA was converted to cDNA using Superscript II reverse transcriptase (Invitrogen). Quantitative real time PCRs were performed using an iCycler (BioRad) by mixing cDNAs, iQ SYBR Green Supermix (BioRad) and gene specific primers. Results were normalized to the level of beta-2-microglobulin (B2m). Primer sequences are as follows: Numb-F, […] (SEQ ID NO: 1); Numb-R, […] (SEQ ID NO: 2); Msi1-F, […] (SEQ ID NO: 3); Msi1-R, […] (SEQ ID NO: 4); Msi2-F, […] (SEQ ID NO: 5); Msi2-R, […] (SEQ ID NO: 6); B2m-F, […] (SEQ ID NO: 7); B2m-R, […] (SEQ ID NO: 8).
as §1

## shMsi: shRNA retrovirus targeting Msi2, SEQ ID NO: 9, 5′-CCCAGATAGCCTTAGAGACTAT-3′
[1]; established blast crisis CML cells, vs control shRNA
  colony growth in vitro: reduced colony growth in vitro
[1]; methylcellulose media, Msi2 knockdown AML cells
  reduction in the number of colonies formed: 50-70%
Blast crisis CML / AML; 3000 or 10,000 cells transplanted
  AML incidence in serial transplants: loss in AML incidence
Blast crisis CML / AML; Lin-negative AML cells transduced, sublethally irradiated mice, 11 of 13 control mice sick by 1 month
  mice surviving beyond 1 month: more than half
Blast crisis CML / AML; Wright's stain of leukemic cells, primary transplant
  differentiation of leukemias that occurred: more differentiated
Blast crisis CML / AML; mice transplanted with Lin− cells from primary shRNA expressing leukemias, control 87%
  ability to propagate disease (mice succumbing): 25%
Blast crisis CML / AML; primary transplant of established blast crisis CML cells, vs shLuc
  disease incidence in vivo (survival curve): reduced disease incidence in vivo
Blast crisis CML / AML; surviving mice
  transplanted leukemic cells in peripheral blood of surviving mice: no detectable levels of transplanted leukemic cells
Msi2 transcript
  reduction in Msi2 transcript levels: 75-90%

Reference: patent publication US10344276B2, “Diagnostic and treatment for chronic and acute phase myeloid leukemia” (Duke University, priority 2009, dated 2019)
